Measurements reported in patent US20250057994A1, “LABELED COMPOUNDS AND CALCIUM SENSING RECEPTOR LIGANDS FOR IMAGING AND USES THEREOF” (The University of North Carolina at Chapel Hill, priority 2021, published 2025).

Key:
[1] = In vivo acute toxicity study with overdose of cold standard; set-up: species or system JAX Swiss Outbred mice; details: for ALP (alkaline phosphatase) / ALT (alanine aminotransferase) / AST (aminotransferase) / BUN (blood urea nitrogen) / creatinine: mice plasma
Experimental: In vivo Toxicity study. An In vivo acute toxicity study of [^19F]F-cinacalcet was carried out in JAX Swiss Outbred mice. The mice were injected intravenously with an overdose of cold standard [^19F]F-cinacalcet (57.6 μg, ˜1000 times greater than the radiotracer [^18F]F-cinacalcet dose). Plasma samples were collected and analyzed at various time points. […] Alkaline phosphatase (ALP) and alanine transaminase (ALT) are two important biological indicators associated with liver function. […] It is very common to see a transient increase in blood AST after drug administration, which usually has no actual pathological significance. Blood urea nitrogen (BUN) and creatinine are two critical indicators for evaluating kidney function. There were no significant changes in BUN and creatinine levels in the mice injected with [^19F]F-cinacalcet compared with the vehicle controls. In addition, histopathological staining was performed on the kidney, liver, and heart tissues collected at different time points. […] The basic structures of the glomerulus, renal tubulus, liver lobule central vein, and cardiac muscle fibers remained intact.

CSR = molecular target: T1, CSR (Homo sapiens, UniProt P41180); assay: Cell uptake and specific blocking assays in Hcc827 cells; details: blocker 100 μM
T1 sequence (P41180 20-1078): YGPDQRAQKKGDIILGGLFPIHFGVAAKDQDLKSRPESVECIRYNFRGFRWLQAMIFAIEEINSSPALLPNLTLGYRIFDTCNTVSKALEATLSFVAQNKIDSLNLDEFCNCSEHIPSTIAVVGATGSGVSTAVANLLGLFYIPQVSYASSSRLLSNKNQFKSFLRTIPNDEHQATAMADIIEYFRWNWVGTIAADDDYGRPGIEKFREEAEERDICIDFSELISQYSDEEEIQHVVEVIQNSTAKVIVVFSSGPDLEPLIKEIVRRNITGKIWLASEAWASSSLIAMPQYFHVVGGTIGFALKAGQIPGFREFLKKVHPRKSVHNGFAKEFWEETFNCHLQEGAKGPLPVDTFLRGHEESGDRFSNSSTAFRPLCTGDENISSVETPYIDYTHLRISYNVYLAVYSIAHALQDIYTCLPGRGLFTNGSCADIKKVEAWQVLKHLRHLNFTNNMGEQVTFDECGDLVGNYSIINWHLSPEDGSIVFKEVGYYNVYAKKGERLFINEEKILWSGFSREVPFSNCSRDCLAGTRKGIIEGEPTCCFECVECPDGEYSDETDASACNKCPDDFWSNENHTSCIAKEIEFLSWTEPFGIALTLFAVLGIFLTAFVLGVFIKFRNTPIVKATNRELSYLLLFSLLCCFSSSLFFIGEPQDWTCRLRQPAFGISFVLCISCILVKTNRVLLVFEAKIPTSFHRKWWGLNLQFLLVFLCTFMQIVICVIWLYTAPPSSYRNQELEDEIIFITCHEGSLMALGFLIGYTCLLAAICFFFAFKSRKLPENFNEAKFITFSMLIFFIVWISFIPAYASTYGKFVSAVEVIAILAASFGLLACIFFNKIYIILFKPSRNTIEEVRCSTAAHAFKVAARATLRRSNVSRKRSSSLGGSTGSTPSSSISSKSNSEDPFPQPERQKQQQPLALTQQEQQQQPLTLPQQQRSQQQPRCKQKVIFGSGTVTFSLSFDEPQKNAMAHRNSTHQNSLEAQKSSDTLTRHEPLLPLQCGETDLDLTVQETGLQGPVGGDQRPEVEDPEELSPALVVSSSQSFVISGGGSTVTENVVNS

C[C@@H](NCCCc1cccc(C(F)(F)F)c1)c1ccc(F)c2ccccc12 [[^19F]F-ZW-cinacalcet]
ALP (alkaline phosphatase) ([1]; 2 weeks after overdose): 80.33 ± 9.00 U/L
ALT (alanine aminotransferase) ([1]; 2 weeks after overdose): 24.67 ± 0.94 U/L
AST (aminotransferase) ([1]; 2 weeks after overdose): 82 ± 28.6 U/L
BUN (blood urea nitrogen) ([1]; 2 weeks after overdose): 18 ± 0.82 mg/dL
creatinine ([1]; 2 weeks after overdose): 0.18 ± 0.01 mg/dL
ALP (alkaline phosphatase) ([1]; 1 h after overdose): 87.67 ± 13.70 U/L
ALT (alanine aminotransferase) ([1]; 1 h after overdose): 29.33 ± 3.10 U/L
AST (aminotransferase) ([1]; 1 h after overdose): 82.67 ± 21.68 U/L
BUN (blood urea nitrogen) ([1]; 1 h after overdose): 17 ± 1.41 mg/dL
creatinine ([1]; 1 h after overdose): 0.24 ± 0.09 mg/dL
ALP (alkaline phosphatase) ([1]; 24 h after overdose): 54 ± 9.09 U/L
ALT (alanine aminotransferase) ([1]; 24 h after overdose): 31.33 ± 9.10 U/L
AST (aminotransferase) ([1]; 24 h after overdose): 104.67 ± 45.38 U/L
BUN (blood urea nitrogen) ([1]; 24 h after overdose): 18.33 ± 1.25 mg/dL
creatinine ([1]; 24 h after overdose): 0.25 ± 0.11 mg/dL
Acute toxicity ([1]; mice, i.v. overdose 57.6 μg): no acute toxicity
Mortality and health changes ([1]; mice, i.v. overdose 57.6 μg, study period): No animal deaths and significant health changes were observed
Histopathology of kidney, liver and heart (HE staining) ([1]; mice, i.v. overdose, different time points): no obvious pathological changes
Block of [18F]F-ZW-cinacalcet uptake (CSR; 20 min post incubation): 89.9%
Block of [18F]F-ZW-cinacalcet uptake (CSR; other time points): More than 87%
